From patent US20260001864A1, “COMPOUND CONTAINING SULFAMIDE STRUCTURE, AND PREPARATION METHOD THEREFOR AND APPLICATION THEREOF, AND PHARMACEUTICAL COMPOSITION AND APPLICATION” (Nanjing Shuohui Pharmatechnology Co., Ltd, priority 2021, published 2026)

Each compound was assayed against H+/K+-ATPase (rabbit gastric mucosal microsomes) (Oryctolagus cuniculus (Rabbit), UniProt P27112) (assay: In vitro screening test of H+/K+-ATPase inhibition (malachite green)). Conditions: pH 6.5, 37° C. 30 min, read-out: IC50, inhibitory effect on H+/K+-ATPase activity.
Format: biochemical
Source text: This test example evaluates the inhibitory effects of the compounds of the present invention on the activity of H+/K+-ATPase by an in vitro screening test, and expresses them with the IC50 values of the compounds (obtained by calculating the inhibition rates at different concentrations).
• Compound solutions: The products (i.e., the compounds or the hydrochloride salt of compounds) obtained in the foregoing preparation examples of the present invention were each independently dissolved in DMSO to form solutions at suitable concentrations; • Buffer I: 50 mmol/L HEPEs-Tris, pH=6.5, 5 mmol/L magnesium chloride, […] valinomycin (J&K Scientific Ltd., goods No.: 227304); • Buffer II: 50 mmol/L HEPEs-Tris, pH=6.5, 5 mmol/L magnesium chloride, […] valinomycin, 5 mmol/L potassium chloride; • 5-adenosine triphosphate (ATP, Sigma-Aldrich, goods No.: A2383) solution: Dilute ATP with buffer I to 5 mM; • Malachite green solution: Dissolve 0.12 wt % malachite green (J&K Scientific Ltd., goods No.: 913120) in 2.5 mol/L sulfuric acid, 7.5 wt % ammonium molybdate (J&K Scientific Ltd., goods No.: 128321) and 11% Tween 20(V/V). During use, sulfuric acid, ammonium molybdate and Tween 20 are mixed in a ratio of 100:25:2; • Rabbit gastric mucosal microsomes (rich in H+/K+-ATPase, self-extracted), extracted by sucrose gradient centrifugation: The rabbit stomach was washed with tap water and 3M NaCl solution, respectively, and then the surface water was removed with filter paper. A pre-cooled homogenization buffer (4 ml/g tissue) was added and homogenized for 2-5 min in a tissue homogenizer. After the homogenizing, if there are large tissue particles, they can be removed by centrifugation (600 g, 10 min). The supernatant was then transferred to a clean centrifuge tube and centrifuged at 20,000 g for 30 min, then the supernatant was transferred to a clean centrifuge tube and further centrifuged at 100,000 g for 90 min and the precipitate was collected; the precipitate was suspended in homogenate and blown evenly, and the protein concentration was measured by the Bradford's method and adjusted to 10 mg/ml; 7.5 wt % Ficoll's layering solution was added in equal proportions. After centrifugation at 100,000 g for 60 min, the middle layer (H^+/K^+-ATPase-enriched gastric membranes) was collected in a clean centrifuge tube, diluted with homogenate by 4-5 times, and then centrifuged at 100,000 g for another 90 min, and the precipitate was collected; the precipitate was suspended in homogenate and homogenized in a glass homogenizer, and the protein concentration was measured by the Bradford's method and adjusted to 22.5 mg/ml. It was frozen at −80° C. and stored for future use.
5 μL of rabbit gastric mucosal microsomes (H^+/K^+-ATPase) was added to 45 μL of buffer II, then 5 μL of compound solution was added, and then 5 μL of 5 mM ATP solution was added to start the reaction and pre-react at 37° C. for 30 min. 15 μL of malachite green solution was added to terminate the reaction, balancing was conducted at room temperature for 20 min, and read the optical absorbance at 620 nm.
Meanwhile, the reaction of the same volume was carried out without addition of potassium chloride as a background, which was subtracted when calculating enzymatic activity.

H+/K+-ATPase (rabbit gastric mucosal microsomes), sequence (P27112 whole entry): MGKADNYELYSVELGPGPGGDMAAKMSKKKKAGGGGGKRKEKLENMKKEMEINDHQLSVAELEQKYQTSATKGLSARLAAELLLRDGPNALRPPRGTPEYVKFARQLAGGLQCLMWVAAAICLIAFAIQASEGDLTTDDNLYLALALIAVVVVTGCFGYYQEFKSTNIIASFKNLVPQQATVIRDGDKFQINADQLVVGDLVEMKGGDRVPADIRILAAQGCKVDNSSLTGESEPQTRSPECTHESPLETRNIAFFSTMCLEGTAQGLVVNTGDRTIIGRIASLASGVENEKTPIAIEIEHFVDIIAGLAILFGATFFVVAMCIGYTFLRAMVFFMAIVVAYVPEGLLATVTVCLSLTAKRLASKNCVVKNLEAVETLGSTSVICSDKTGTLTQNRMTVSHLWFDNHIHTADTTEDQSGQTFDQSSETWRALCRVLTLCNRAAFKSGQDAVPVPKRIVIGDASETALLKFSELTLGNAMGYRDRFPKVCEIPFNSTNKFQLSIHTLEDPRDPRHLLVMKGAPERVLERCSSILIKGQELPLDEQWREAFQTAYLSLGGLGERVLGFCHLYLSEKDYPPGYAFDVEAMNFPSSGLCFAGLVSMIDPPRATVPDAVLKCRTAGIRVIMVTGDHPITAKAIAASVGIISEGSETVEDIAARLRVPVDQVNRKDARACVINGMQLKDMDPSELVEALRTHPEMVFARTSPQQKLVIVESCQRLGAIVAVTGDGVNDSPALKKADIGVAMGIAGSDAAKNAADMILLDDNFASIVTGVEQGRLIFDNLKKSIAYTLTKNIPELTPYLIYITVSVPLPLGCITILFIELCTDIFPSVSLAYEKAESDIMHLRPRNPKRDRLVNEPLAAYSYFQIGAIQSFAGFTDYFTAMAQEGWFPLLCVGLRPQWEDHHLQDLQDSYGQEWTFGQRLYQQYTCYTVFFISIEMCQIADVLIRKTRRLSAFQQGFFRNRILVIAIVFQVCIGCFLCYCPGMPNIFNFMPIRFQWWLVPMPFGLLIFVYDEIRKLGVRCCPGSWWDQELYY
H+/K+-ATPase (rabbit gastric mucosal microsomes), sequence (P18597 whole entry partner): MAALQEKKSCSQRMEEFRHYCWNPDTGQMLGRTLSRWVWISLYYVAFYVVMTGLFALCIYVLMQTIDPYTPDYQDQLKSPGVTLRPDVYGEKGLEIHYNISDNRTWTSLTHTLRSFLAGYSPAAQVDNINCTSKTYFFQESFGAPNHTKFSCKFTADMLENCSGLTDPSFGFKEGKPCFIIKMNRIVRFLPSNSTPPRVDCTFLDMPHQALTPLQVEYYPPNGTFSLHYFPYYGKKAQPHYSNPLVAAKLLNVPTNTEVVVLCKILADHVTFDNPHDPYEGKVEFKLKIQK

| Structure (SMILES) | IC50 |
| --- | --- |
| CNCc1cc(-c2ccc(OCC3CCNCC3)cc2F)n(S(=O)(=O)c2cccnc2)c1 [Compound 21] | 2790 nM |
| CNCc1cc(-c2ccc(OCc3cccc4c3OCO4)cc2F)n(S(=O)(=O)c2cccc(OCCCCOC)c2)c1 [Compound 93] | 12400 nM |
| CNCc1cc(-c2ccc(OC(C)c3cc(F)cc(F)c3)cc2F)n(S(=O)(=O)c2cccc(OCCCCOC)c2)c1 (centres unmarked) [Compound 92] | 1910 nM |
| CNCc1cc(-c2ccc(OC(C)c3c(F)cccc3F)cc2F)n(S(=O)(=O)c2cccc(OCCCOC)c2)c1 (centres unmarked) [Compound 88] | 450 nM |
| CNCc1cc(-c2ccc(OCC3CCCCO3)cc2F)n(S(=O)(=O)c2cccnc2)c1 (centres unmarked) [Compound 7] | 254 nM |
| CNCc1cc(-c2ccc(OC(C)C3CCOCC3)cc2F)n(S(=O)(=O)c2ccc(F)cc2F)c1 (centres unmarked) [Compound 17] | 265 nM |
| CNCc1cc(-c2ccc(OC(C)C3CCCCC3)cc2F)n(S(=O)(=O)c2cccnc2)c1 (centres unmarked) [Compound 20] | 294 nM |
| CNCc1cc(-c2ccc(OCC3CCOCC3)cc2F)n(S(=O)(=O)c2ccc(C#N)cc2)c1 [Compound 29] | 290 nM |
| CCCCCOc1cccc(S(=O)(=O)n2cc(CNC)cc2-c2ccc(OCC3CCCCC3)cc2F)c1 [Compound 36] | 2270 nM |
| CNCc1cc(-c2ccc(OC(C)c3c(F)cccc3F)cc2F)n(S(=O)(=O)c2cccc(OCCCCOC)c2)c1 (centres unmarked) [Compound 91] | 693 nM |
| CNCc1cc(-c2ccc(OC(C)C3CCOCC3)cc2F)n(S(=O)(=O)c2cccc(OCC3CCC3)c2)c1 (centres unmarked) [Compound 33] | 883 nM |
| CNCc1cc(-c2ccc(O[C@@H](C)c3c(Cl)ccc(F)c3Cl)cc2F)n(S(=O)(=O)c2cccnc2)c1 [Compound 66] | 485 nM |
| CNCc1cc(-c2ccc(OC(C)C3CCOCC3)cc2F)n(S(=O)(=O)c2ccc(C#N)cc2)c1 (centres unmarked) [Compound 18] | 262 nM |
| CNCc1cc(-c2ccc(OCC(C)(C)O)cc2F)n(S(=O)(=O)c2cccnc2)c1 [Compound 52] | 372 nM |
| CCCCCOc1cccc(S(=O)(=O)n2cc(CNC)cc2-c2ccc(OCc3cc(F)ccc3F)cc2F)c1 [Compound 82] | 3660 nM |
| CNCc1cc(-c2ccc(OCCCOC)cc2F)n(S(=O)(=O)c2cccnc2)c1 [Compound 43] | 482 nM |
| CNCc1cc(-c2ccc(OCC3CCOCC3)cc2F)n(S(=O)(=O)c2cccc(OCCCOC)c2)c1 [Compound 32] | 822 nM |
| CNCc1cc(-c2ccc(OC(C)c3cc(F)cc(F)c3)cc2F)n(S(=O)(=O)c2cccc(OCCCOC)c2)c1 (centres unmarked) [Compound 89] | 1330 nM |
| CNCc1cc(-c2ccc(OCC3CCN(C)CC3)cc2F)n(S(=O)(=O)c2cccnc2)c1 [Compound 22] | 458 nM |
| CNCc1cc(-c2ccc(OC(C)c3c(F)cccc3F)cc2F)n(S(=O)(=O)c2cccc(OCC3CC3)c2)c1 (centres unmarked) [Compound 72] | 342 nM |
| CNCc1cc(-c2ccc(OC(C)c3c(F)cccc3F)cc2F)n(S(=O)(=O)c2cccc(OCC3CCC3)c2)c1 (centres unmarked) [Compound 83] | 13300 nM |
| CNCc1cc(-c2ccc(OCC3CCN(C(C)=O)CC3)cc2F)n(S(=O)(=O)c2cccnc2)c1 [Compound 23] | 908 nM |
| CCNCc1cc(-c2ccc(OCC3CCOCC3)cc2F)n(S(=O)(=O)c2cccnc2)c1 [Compound 46] | 639 nM |
| CNCc1cc(-c2ccc(OCc3ccncc3)cc2F)n(S(=O)(=O)c2cccnc2)c1 [Compound 74] | 564 nM |
| CNCc1cc(-c2ccc(OC(C)C3CCOCC3)cc2F)n(S(=O)(=O)c2c(F)cccc2F)c1 (centres unmarked) [Compound 16] | 253 nM |

More lines, in order of falling IC50, values ahead:

| IC50 | Structure (SMILES) |
| --- | --- |
| 247 nM | CNCc1cc(-c2ccc(OC(C)C3CCOCC3)c(F)c2)n(S(=O)(=O)c2cccnc2)c1 (centres unmarked) [Compound 47] |
| 233 nM | CNCc1cc(-c2ccc(OC(C)C3CCOCC3)cc2F)n(S(=O)(=O)c2cccc(F)c2)c1 (centres unmarked) [Compound 19] |
| 202 nM | CNCc1cc(-c2ccc(OCC3CCOCC3)cc2F)n(S(=O)(=O)c2ccc(C)c(F)c2)c1 [Compound 26] |
| 186 nM | CNCc1cc(-c2ccc(OCc3ccccc3OC(F)(F)F)cc2F)n(S(=O)(=O)c2cccnc2)c1 [Compound 60] |
| 164 nM | CNCc1cc(-c2ccc(OCc3ccc(C(=O)O)cc3)cc2F)n(S(=O)(=O)c2cccnc2)c1 [Compound 64] |
| 157 nM | CNCc1cc(-c2ccc(OCc3ncccc3F)cc2F)n(S(=O)(=O)c2cccnc2)c1 [Compound A6] |
| 155 nM | CNCc1cc(-c2ccc(OCc3cccnc3C)cc2F)n(S(=O)(=O)c2cccnc2)c1 [Compound A2] |
| 138 nM | CNCc1cc(-c2ccc(OC(C)C3CCOCC3)cc2F)n(S(=O)(=O)c2cc(F)ccc2F)c1 (centres unmarked) [Compound 12] |
| 123 nM | CNCc1cc(-c2ccc(OC)cc2F)n(S(=O)(=O)c2cccnc2)c1 [Compound 40] |
| 120 nM | CNCc1cc(-c2ccc(OCc3ccsc3)cc2F)n(S(=O)(=O)c2cccnc2)c1 [Compound 77] |
| 114 nM | CNCc1cc(-c2ccc(OC(C)c3c(F)cccc3F)cc2F)n(S(=O)(=O)c2cccc(C#N)c2)c1 (centres unmarked) [Compound 69] |
| 114 nM | CNCc1cc(-c2ccc(OC[C@@H]3CO3)cc2F)n(S(=O)(=O)c2cccnc2)c1 [Compound 50] |
| 109 nM | CNCc1cc(-c2ccc(OCc3cc(F)ccc3F)cc2F)n(S(=O)(=O)c2cccc(OCC3CCCC3)c2)c1 [Compound 84] |
| 98.5 nM | CNCc1cc(-c2ccc(OCc3cc(F)ccc3F)cc2F)n(S(=O)(=O)c2cccc(Cl)c2)c1 [Compound 78] |
| 82.4 nM | CNCc1cc(-c2ccc(OCC3CCC(F)(F)CC3)cc2F)n(S(=O)(=O)c2cccnc2)c1 [Compound 5] |
| 80.5 nM | CNCc1cc(-c2ccc(OC(C)c3cc(F)ccc3F)cc2F)n(S(=O)(=O)c2cccnc2)c1 (centres unmarked) [Compound 65] |
| 65.9 nM | CNCc1cc(-c2ccc(OCc3cc(F)ccc3F)cc2F)n(S(=O)(=O)c2cc(F)cc(F)c2)c1 [Compound 80] |

| IC50 | Structure (SMILES) |
| --- | --- |
| 56.1 nM | CNCc1cc(-c2ccc(OC[C@@H]3C[C@@H]3F)cc2F)n(S(=O)(=O)c2cccnc2)c1 [Compound 53] |
| 55.3 nM | CNCc1cc(-c2ccc(OCc3cc(F)ccc3F)cc2F)n(S(=O)(=O)c2cccc(F)c2)c1 [Compound 79] |
| 51.3 nM | CNCc1cc(-c2ccc(OCc3ccc(OC(F)F)cc3)cc2F)n(S(=O)(=O)c2cccnc2)c1 [Compound 61] |
| 51.1 nM | CNCc1cc(-c2ccc(OCc3cccc4c3OCCO4)cc2F)n(S(=O)(=O)c2cccnc2)c1 [Compound 96] |
| 43.4 nM | CNCc1cc(-c2ccc(OCc3ccccc3OC)cc2F)n(S(=O)(=O)c2cccc(OCCOC)c2)c1 [Compound 87] |
| 41.4 nM | CNCc1cc(-c2ccc(OC(C)c3cc(F)cc(F)c3)cc2F)n(S(=O)(=O)c2cccnc2)c1 (centres unmarked) [Compound 68] |
| 41.3 nM | CNCc1cc(-c2ccc(OCc3ccccc3OC(F)F)cc2F)n(S(=O)(=O)c2cccnc2)c1 [Compound 59] |
| 38.7 nM | CNCc1cc(-c2ccc(OCC3CCOCC3)cc2F)n(S(=O)(=O)c2cc(F)cc(F)c2)c1 [Compound 27] |
| 35.9 nM | CNCc1cc(-c2ccc(OCc3cccc4ccccc34)cc2F)n(S(=O)(=O)c2cccnc2)c1 [Compound 62] |
| 34.6 nM | CNCc1cc(-c2ccc(OCC3CCOCC3)cc2F)n(S(=O)(=O)c2cccc(C(F)(F)F)c2)c1 [Compound 39] |
| 34.4 nM | CNCc1cc(-c2ccc(OCc3cc(F)ccc3F)cc2F)n(S(=O)(=O)c2cccc(OCCOC)c2)c1 [Compound 86] |
| 30.9 nM | CNCc1cc(-c2ccc(OCC3CCCCC3)cc2F)n(S(=O)(=O)c2cccnc2)c1 [Compound 4] |
| 25.4 nM | CNCc1cc(-c2ccc(OC(C)C3CCOCC3)cc2F)n(S(=O)(=O)c2cc(F)cc(F)c2)c1 (centres unmarked) [Compound 9] |
| 24.5 nM | CNCc1cc(-c2ccc(OCC3CCC3)cc2F)n(S(=O)(=O)c2cccnc2)c1 [Compound 2] |
| 20.9 nM | CNCc1cc(-c2ccc(OCC3CCCC3)cc2F)n(S(=O)(=O)c2cccnc2)c1 [Compound 3] |
| 17.8 nM | CNCc1cc(-c2ccc(OCc3cc(F)ccc3F)cc2F)n(S(=O)(=O)c2cccnc2)c1 [Compound 54] |
| 8.6 nM | CNCc1cc(-c2ccc(OCc3ccc(F)cc3F)cc2F)n(S(=O)(=O)c2cccnc2)c1 [Compound 55] |
